Data taken from ChEMBL document CHEMBL1806349, “Improved performance by replacing iminodiacetic residues with glyceryl residues in symmetrically branched oligoglycerols” (Bioorg Med Chem Lett, 2011).
Values after ≈ are worked out from the molar mass of the structure shown.

Assays:
[1] = AUC (0 to 24 hrs) in iv dosed Crl:CD(SD) rat; format: ADME, organism-based; parameters: time < 24 hr, route intravenous; conditions: plasma
[2] = Solubility of the compound in water; format: physicochemical

SMILES | AUC(0-t) at 24 h [1] [ng·h/mL] | solubility [2] [mM]
CCCCCCCCCCCCCCCCCC(=O)OCC(CO[P+]([O-])(O)OCCNC(=O)CCC(=O)N(CC(=O)N(CC(=O)NC(COC(CO)CO)COC(CO)CO)CC(=O)NC(COC(CO)CO)COC(CO)CO)CC(=O)N(CC(=O)NC(COC(CO)CO)COC(CO)CO)CC(=O)NC(COC(CO)CO)COC(CO)CO)OC(=O)CCCCCCCCCCCCCCCCC (centres undefined) | 53100 | –
CCCCCCCCCCCCCCCCCC(=O)OCC(CO[P+]([O-])(O)OCCNC(=O)CCC(=O)N(CC(=O)NC(COC(COC(CO)CO)COC(CO)CO)COC(COC(CO)CO)COC(CO)CO)CC(=O)NC(COC(COC(CO)CO)COC(CO)CO)COC(COC(CO)CO)COC(CO)CO)OC(=O)CCCCCCCCCCCCCCCCC (centres undefined) | 95100 | –
O=C(CCC(=O)NC(COC(CO)CO)COC(CO)CO)NCCCCCCCCNC(=O)c1ccccc1 | – | 350 (≈ 199 mg/mL)
O=C(CCC(=O)N(CC(=O)NC(CO)CO)CC(=O)NC(CO)CO)NCCCCCCCCNC(=O)c1ccccc1 | – | 21 (≈ 12.8 mg/mL)
